Where only a bound is given, the exact number is not on record here.

Holding throughout (format): cell-based, human
In assay [1] the test system is heavy OG cells. Description: Proliferation of heavy OG cells cultured in IGF2 inhibitor-treated medium. As for the experimental part: First, among the OG cells obtained in the step iii) of [Example 12], the heavy cells were cultured for 3 days while treating the medium with chromeceptin at a concentration of 2 nM to 2 μM, in the course of inducing differentiation into a chondrogenic pellet according to the step iv). Then, morphology of the cells was observed over the treatment time, and the number of the proliferated cells was counted.

Assay [2] deals with heavy OG cells. Description: Chondrocyte markers in chondrogenic pellet differentiated in IGF2 inhibitor-treated medium. The conditions noted are these: 2 mM chromeceptin, treatment after aggregation compared with before aggregation. The method, then:
First, among the OG cells obtained in the step iii) of [Example 12], the heavy cells were cultured for 3 days while treating the medium with chromeceptin at a concentration of 2 mM, in the course of inducing differentiation into a chondrogenic pellet according to the step iv). Experimental groups were divided into two groups, that is, the experimental group (before aggregation) in which differentiation into chondrocytes had been induced by performing treatment with chromeceptin from the beginning of formation of a chondrogenic pellet, and the experimental group (after aggregation) in which differentiation into chondrocytes had been induced by performing treatment with chromeceptin from 7 days after induction of formation of a chondrogenic pellet. The differentiated chondrogenic pellets were respectively obtained therefrom. Then, mRNA was extracted from each of the obtained chondrogenic pellets, and the expression levels of COL2A1, SOX9, COL1A1 and COL10A1 were checked.

Assay [3] deals with heavy OG cells. The assay is described as follows: Chondrogenic differentiation markers of heavy OG cells cultured in IGF2 inhibitor-treated medium. An excerpt: Accordingly, heavy OG cells were induced to differentiate into a chondrogenic pellet while performing treatment with chromeceptin under the conditions of Example <16-1>, during which the OG cells were obtained, and mRNA was extracted therefrom and used to synthesize cDNA. Using the synthesized cDNA as a template, expression levels of SOX9, COL2A1, COL10A1, and IGF2 were quantitatively analyzed.

On to `CN(C)c1ccc2c(c1)OC(N)=C(C#N)C2c1cccc(C(F)(F)F)c1` (stereo not drawn) [chromeceptin], for which, in assay [1] (2 μM chromeceptin, after 72 hours, compared with untreated control), the “decrease of the number of OG cells” value is at least 3 times. Moreover, the “degree of proliferation of the cells” value in assay [1] (chromeceptin 2 nM to 2 μM, 3 days) is on record as “decreases with increased treatment concentration”. Also, in assay [2], the “expression level of SOX9 in chondrogenic pellet” value was “significantly increased”. Further, in assay [3] (2 μM chromeceptin, compared with untreated control (Normal Ctrl)), the “expression level of SOX9” value was “remarkably increases”. Further, in assay [3] (chromeceptin 2 nM to 2 μM), the “expression level of IGF2 in the OG cells” value is recorded as “decreases with increased treatment concentration” and the “expression level of SOX9” value is reported as “significantly increases with increased treatment concentration”.

The values are drawn from patent US11624056B2, “Method for producing cartilage cells induced to be differentiated from stem cells” (YiPCELL Inc., priority 2017, dated 2023).
